# Experimental data taken from patent publication US20120196811A1 (priority 2009, published 2012).
# Tested on: broiler chickens with combined chronic mycotoxicosis (aflatoxin B1, ochratoxin A, T-2-mycotoxin, fumonisin B1 in feed)
# Design: species or system broiler chickens of the Cobb-Avian-48 cross
# Settings: in vivo
smiles,measurement,value
OC[C@H]1O[C@@H](O[C@@H]2[C@@H](CO)OC(O)(CO)[C@H]2O)[C@H](O)[C@@H](O)[C@H]1O (mixture of isomers) [lactulose],recovery of average daily weight gain per kilogram of component in the compound feed,25%
